From patent US12258561B2, “Compositions and methods to promote bone formation and their uses including for the treatment of cancer” (THE RESEARCH FOUNDATION FOR THE STATE UNIVERSITY OF NEW YORK, priority 2014, dated 2025)
Entries after “also recorded” stand apart in the source; their conditions may differ.

What was measured:
[1] = system: unicortical defect in mouse tibia; test: Opioid antagonist containing collagen implant in unicortical defect model, microCT; type: in vivo, C57BL/6 mice; details: 7 days after surgery
Excerpt: Implantation of Opioid Antagonist Containing Collagen Implant into a Unicortical Defect Model: Male 5-week old C57BL/6 mice (n=5 per treatment group for a total of 25 total animals) were used in this study. […] Unicortical defects were surgically administered through a small incision (approximately 3-mm) made just below the knee joint, located on the medial side of the tibia just below the tibial tuberosity on the tibial crest. In 5-weeks old male mice, the physeal plate is clearly visible and the drill bit was placed approximately 1-mm below this point. The drill-bit produces a unicortical defect with dimensions 300-μm diameter×1-mm depth. […] In parallel, a separate group of animals served as non-surgical controls. Mice were euthanized 7-days after surgery, hind limbs were collected and tibias were prepared for micro-CT (μCT) analysis.
(§1) MicroCT Analysis of Unicortical Defects: High-resolution images of the tibia were acquired with μCT imaging system (μT40; Scanco Medical). Tibias were scanned at 45-keV with an isotropic voxel size of 12-μm. An analysis region was selected from axial sections to include the entire unicortical defect bounded by the endosteal cortical wall. The volume corrected bone volume (bone volume/total volume; By/Tv), trabecular number (TbN) and trabecular thickness (TbTh) were calculated using the Scanco software.

[2] = system: MSC cultures induced to become osteoblasts; test: Osteogenesis: mineral formation in MSC with osteoinduction media (alizarin red-S staining); type: cell-based, human
Excerpt: Methods: Human Bone Marrow was Collected from Consenting Adult Patients undergoing either an elective primary proximal femoral total hip arthroplasty or elective primary distal femoral total knee arthroplasty (n=6, mean age 65) as a part of an IRB approved study. Human MSC were derived from the adherent fraction of cells derived from each whole bone marrow aspirate collected, while the monocyte population was collected from the non-adherent fraction of the bone marrow. The monocyte fraction was enriched through sub-culture with 100-ng/mL recombinant human macrophage colony-stimulating factor (MCSF; Wyeth). In parallel experiments described below, the femurs from 3-week (n=10) and 16-week (n=20) old male mice were collected and then the bone marrow was flushed from the femur according to the following: A 21-gauge needle was inserted into the femoral intramedular canal after the removal of the proximal and distal ends of the femur. Media was then carefully passed through the proximal end of the femur, which forced the bone marrow to pass out of the bone. Finally, the bone marrow pellet was mechanically disassociated using an 18-gauge needle and then passed through a 70-μm mesh filter. These whole bone marrow aspirates were used to generate osteoclasts. Cells were maintained in Dulbecco's Modification of Eagle's Media (DMEM) containing 10% fetal calf serum (v/v) and 1% penicillin-streptomycin-glutamine (PSG; Cellgro, Mediatech). […] The responsible IACUC committee approved all of the animal studies described in this work.
Osteogenesis: Osteogenic potential in MSC was assayed by chemically inducing mineral formation. MSC from at least three human patients were seeded at 5×10^3 cells per well and allowed to become confluent and woven prior to the addition of osteo-induction media. Induction media consisted of DMEM containing 20% FCS (v/v) and 1% PSG supplemented with 25-μg/mL of acscorbic-2-phosphate (Sigma), 100-nM dexamethasone (Sigma) and the following dosing regimen of β-glycerophosphate (BGP; Sigma): 1× media change with 5-mM BGP, 1× media change with 10-mM BGP and 1× media change with 20-mM of BGP. Met5-ligand (0-, [5-μM] 2.87-, or [50-μM] 28.7-μg; Sigma), naloxone (0-, 400-fg, 400-pg, 400-ng, 400-μg; Sigma) or naltrexone (0-, 378-fg, 378-pg, 378-ng, 378-μg; Sigma) was added as follows: 1) 1×, with the first addition of osteo-induction media, 2) 2×, with the first and second addition of osteo-induction media and 3) with each post-induction media change. […] After the appearance of mineral nodules, cells were fixed with 70% ice-cold EtOH (Sigma) and then stained using 40-mM alizarin red-S (pH 4.2, Sigma). Osteogenesis experiments were repeated at least twice for each patient.

[3] = system: Hs822t Ewing's sarcoma of bone tumor cells; test: Assay of cell number (MTT), Hs822t cells; type: cell-based
Excerpt: (§2) Methods: Human bone marrow was collected from consenting adult patients undergoing either an elective primary proximal femoral total hip arthroplasty or elective primary distal femoral total knee arthroplasty (n=6, mean age 65) as a part of an IRB approved study. Human MSC were derived from the adherent fraction of whole bone marrow aspirates. Ewing's sarcoma tumor cells (RDES, Hs822 and Hs863) and SaOS2 osteosarcoma tumor cells were obtained from ATCC. Cells were maintained in Dulbecco's Modification of Eagle's Media (DMEM) containing 10% fetal calf serum (v/v) and 1% penicillin-streptomycin-glutamine (PSG; Cellgro, Mediatech).
(§3) Assay of Cell Number: Following the addition of 1-mM naloxone or 1-mM naltrexone, viable cell number was determined with the MTT assay. After 72-hours and 120-hours, MTT (5 mg/ml (w/v), Sigma) was added to each well, incubated for 2-hours, after which the cells lysed with 500-μl of DMSO (Sigma). MTT was measured at 570-nm and the effects of therapy on cell proliferation were determined by normalizing treated wells relative to mean values from non-treated wells: Fold change in cell number=100*[treated cells optical density/mean control optical density].

[4] = system: RDES Ewing's sarcoma of bone tumor cells; test: Assay of cell number (MTT), RDES cells; type: cell-based
Excerpt: as §2, §3

[5] = system: monocytes cultured to become osteoclasts; test: TRAP staining and assay of osteoclast number; type: cell-based, human, mouse
Protocol: TRAP Staining and the Assay of Osteoclast Number: Osteoclasts were derived from either an enriched population of human monocytes or from mouse non-enriched whole bone marrow aspirates. Three human patient bone marrow samples were assayed in parallel with samples collected from 3-week (n=10) mouse bone marrow. The monocyte fraction was stimulated to become osteoclasts by culturing 1×10^6 cells with 25-ng/mL of MCSF and 25-ng/mL of recombinant human or mouse RANK-ligand (R&D Systems) in the presence of the met5-ligand ([5-μM] 2.87-, or [50-μM] 28.7-μg; Sigma), naloxone (400-ng or 400-μg; Sigma) or naltrexone (378-ng or 378-μg; Sigma). Osteoclasts were stained with tartrate resistant acid phosphatase (TRAP; Sigma Leukocyte Acid Phosphatase Kit 387-A) and counted when cells stained TRAP-positive and had at least three nuclei. Estimates of osteoclast number were obtained by Cavalieri sampling and a modification of the fractionator technique.

[6] = system: SaO52 osteosarcoma tumor cells; test: Assay of cell number (MTT), osteosarcoma cells; type: cell-based
Excerpt: as §2, §3

[7] = system: unicortical defect in mouse tibia; test: Unicortical defect model, direct injection, microCT; type: in vivo, C57BL/6 mice; details: naloxone 1-mM or met5 50-μM
Protocol: Unicortical Defect Model: Male 3-week old C57BL/6 mice (n=5 per treatment group) were injected with met5, naloxone or naltrexone following the creation of a unicortical defect. Briefly, a small incision (approximately 3-mm) was made just below the knee joint, located on the medial side of the tibia just below the tibial tuberosity on the tibial crest. In young animals the physeal plate is clearly visible and the drill bit was placed approximately 1-mm below this point. The drill-bit produces a unicortical defect with dimensions 300-μm diameter×1-mm depth. A Hamilton Neuros RN 10-μL syringe with a 33-gauge blunt tip needle was used to inject 2-μL of met5 (28.7-μg), naloxone (400-μg) or naltrexone (378-μg) resuspended in saline directly into the unicortical defect at a rate no faster than approximately 0.1-μL per second. The left-limb tibias served as contra-lateral surgical controls, in which animals received a unicortical defect and 2-μL of saline was injected. Mice were euthanized 5-days after surgery, hind limbs were collected and tibias were fixed for immunofluorescence, TRAP staining and OTC associated bone growth.
as §1

[8] = collagen implant, 25-ng BMP2, 1-mM naltrexone or 1-mM naloxone
[9] = 50-μM met5 with collagen implant

| Compound | Bv/Tv relative to non-surgical controls ([1]; collagen implant) | trabecular thickness (TbTh) relative to the control non-surgical group ([1]; collagen implant) | Bv/Tv compared with the BMP2 treated group ([1]; collagen implant, 1-mM) | increase in Bv/Tv relative to the PBS treated group [1, 8] [%] | increase in Bv/Tv relative to the surgical control group [1, 8] [%] | mineral accumulation (red staining) ([2]; between 1-μM and 1-mM with osteoinduction media) | Hs822t tumor cell number relative to control cultures ([3]; 1-mM, seventy-two hours) | RDES tumor cell number relative to control cultures ([4]; 1-mM, seventy-two hours) | osteoclast number (TRAP staining) ([5]; 1-mM) | osteoclast number (TRAP staining) ([5]; 1-μM) | SaO52 osteosarcoma cell number relative to control cultures ([6]; 1-mM, seventy-two hours) | Bv/Tv greater than the non-surgical control group [1, 9] | fracture healing (Bv/Tv) compared with the surgical control group [1, 9] | mineral accumulation ([2]; 5-μM met5 added to osteoinduction media) | mineral accumulation ([2]; 50-μM met5 added to osteoinduction media) | Hs822t tumor cell number ([3]; 50-μM of met5) | RDES tumor cell number ([4]; met5) | bone healing [7] | osteoclast number (TRAP staining) ([5]; met5, relative to control osteoclast cultures) | SaO52 osteosarcoma cell number ([6]; met5) |
| --- | --- | --- | --- | --- | --- | --- | --- | --- | --- | --- | --- | --- | --- | --- | --- | --- | --- | --- | --- | --- |
| O=C1CC[C@@]2(O)[C@H]3Cc4ccc(O)c5c4[C@@]2(CCN3CC2CC2)[C@H]1O5 [naltrexone] | increased relative to non-surgical controls | increased within the defect significantly | no significant difference | 39.2 | 63.5 | increased mineral, but to a lesser extent than naloxone | decreased relative to the control cultures | decreased significantly | reduced osteoclast number substantially | did not significantly reduce osteoclast number | decreased significantly | – | – | – | – | – | – | – | – | – |
| Tyr-Gly-Gly-Phe-Met (YGGFM; printed: Tyr-Gly-Gly-Phe-Met) [met5, opioid growth factor (OGF or met-5 enkephalin), the native ligand for the OGFR] | – | increased within the defect significantly | – | – | – | – | – | – | – | – | – | approximately 37% | not significantly different | no effect on mineral formation in culture; also recorded: no effect on mineral accumulation | no effect on mineral formation in culture; also recorded: decreased mineral accumulation slightly | significant increase | no effect | no effect | unaffected | had not effect on cell number |
